According to paper PMC11669914, “Identification and characterization of a novel chromosome-encoded aminoglycoside O-nucleotidyltransferase gene, ant(9)-Id, in Providencia sp. TYF-12 isolated from the marine fish intestine” (Frontiers in Microbiology, 2024):
In brackets after ≈: the same amount, converted by molar mass.

Assays:
[1] = tested on: T1, Enterococcus faecalis ATCC29212; experiment: microbe, parasite or virus in culture; set-up: CLSI agar dilution MIC, bacterial growth inhibition
T1 construct: ATCC 29212
Source text: (§1) In accordance with the standards of the Clinical and Laboratory Standards Institute (CLSI),^1 the agar dilution method was used to determine the minimum inhibitory concentration (MIC). E. coli ATCC 25922 served as a quality control for antibiotic susceptibility testing. The tested antimicrobial agents included spectinomycin, tobramycin, streptomycin, netilmicin, paromomycin and amikacin (Table 2).

[2] = tested on: T2, Escherichia coli ACTT25922; experiment: microbe, parasite or virus in culture; set-up: CLSI agar dilution MIC, bacterial growth inhibition
T2 construct: ATCC 25922
Source text: as §1

[3] = tested on: CN[C@@H]1[C@H](O)[C@H](NC)[C@H]2O[C@@]3(O)C(=O)C[C@@H](C)O[C@H]3O[C@@H]2[C@H]1O; experiment: purified protein; format: biochemical, Providencia rettgeri; conditions: 2 mM ATP, 10 mM MgCl2, 50 mM HEPES pH 7.5, 500 μM DTT, 37 °C

CC(C)(O/N=C(\C(=O)N[C@@H]1C(=O)N2C(C(=O)[O-])=C(C[n+]3ccccc3)CS[C@H]12)c1csc(N)n1)C(=O)O [ceftazidime]
MIC [1]: 128 µg/mL (≈ 234 µM) | MIC [2]: ≤ 1 µg/mL

O=C(N[C@H](CO)[C@H](O)c1ccc([N+](=O)[O-])cc1)C(Cl)Cl [chloramphenicol]
MIC [1]: 4 µg/mL (≈ 12.4 µM) | MIC [2]: 4 µg/mL (≈ 12.4 µM)

C[C@H]1c2cccc(O)c2C(=O)C2=C(O)[C@]3(O)C(=O)C(C(N)=O)=C(O)[C@@H](N(C)C)[C@@H]3[C@@H](O)[C@@H]21 [doxycycline]
MIC [1]: 4 µg/mL (≈ 9 µM) | MIC [2]: 1 µg/mL (≈ 2.25 µM)

CC(=O)c1c(C)[n+]([O-])c2ccccc2[n+]1[O-] [mequindox]
MIC [1]: 64 µg/mL (≈ 293 µM) | MIC [2]: 8 µg/mL (≈ 36.7 µM)

CN[C@@H]1[C@H](O[C@H]2[C@H](O[C@H]3[C@H](O)[C@@H](O)[C@H](N=C(N)N)[C@@H](O)[C@@H]3N=C(N)N)O[C@@H](C)[C@]2(O)C=O)O[C@@H](CO)[C@H](O)[C@H]1O [streptomycin]
MIC [1]: 128 µg/mL (≈ 220 µM) | MIC [2]: 8 µg/mL (≈ 13.8 µM)

CN(C)[C@@H]1C(O)=C(C(N)=O)C(=O)[C@@]2(O)C(O)=C3C(=O)c4c(O)cccc4[C@@](C)(O)[C@H]3C[C@@H]12 [tetracycline]
MIC [1]: 8 µg/mL (≈ 18 µM) | MIC [2]: 1 µg/mL (≈ 2.25 µM)

C=C[C@]1(C)C[C@@H](OC(=O)CSCCN(CC)CC)[C@]2(C)[C@H](C)CC[C@]3(CCC(=O)[C@H]32)[C@@H](C)[C@@H]1O [tiamulin]
MIC [1]: 64 µg/mL (≈ 130 µM) | MIC [2]: > 512 µg/mL

ANT(9)-Id (Providencia rettgeri)
Km [3]: 8.94 ± 2.50 µM | kcat [3]: 232 ± 59.8 s⁻¹ | kcat/Km [3]: 2.62e+07 ± 2.95e+06 M⁻¹ s⁻¹
